Data: patent US20250160330A1, “METHOD FOR CONTROLLING HARMFUL ARTHROPODS OR HARMFUL NEMATODES USING ZOANTHAMINE ANALOG” (SUMITOMO CHEMICAL COMPANY, LIMITED, priority 2022, published 2025)

Tests used:
[1] = tested on: northern house mosquitos (Culex pipiens pipiens); assay: Test method 8: coated container contact test, northern house mosquito female adults; type: in vivo; conditions: 24 h, read-out: mortality of insects
Procedure: The test compounds are dissolved with acetone containing a surfactant, and the solution was then poured into a container of 20 mL contents, and the solution was coating uniformly in the inner face of the container such that the test compound is made 10 mg/m^2, and the surfactant is made 40 mg/m^2, and the container is dried.
Five (5) of female adult of northern house mosquitos (Culex pipiens pipiens) are placed in the contained, and the contained is put the lid. After the passing of the prescribed times, the state of the northern house mosquitos are examined, and the mortality is calculated by the following equation.

[2] = tested on: western flower thrips (Frankliniella occidentalis); assay: Test method 5: sprayed cucumber leaf, western flower thrips larvae; type: in vivo; conditions: 144 h, read-out: mortality of insects
Procedure: (§1) Test compounds are made to a formulation according to a similar method to that described in the Formulation Example 5, and thereto is added water containing 0.03 v/v % of Shindain (registered trademark) to prepare a diluted solution containing a prescribed concentration of the test compound.
Cucumber (Cucumber sativus) seedling (on the developmental stage of the second true leaf) is planted in a cup, and the diluted solutions are sprayed into the seedling at a ratio of 10 mL/seedling. Thereafter, the second true leaf is cut, and the cut leaf was placed in the cup, and approximately twenty (20) of larvae of western flower thrips (Frankliniella occidentalis) larvae are released onto the leaf. After 6 days, the number of the surviving insects is examined and the mortality of insects is calculated by the following equation.

[3] = tested on: cotton aphids (Aphis gossypii); assay: Test method 3: foliar spray on cucumber seedling infested with cotton aphids; conditions: read-out: mortality of insects
[4] = tested on: cotton worm (Spodoptera litura); assay: Test method 1: foliar spray on cabbage seedling, cotton worm larvae; type: in vivo; conditions: 144 h, read-out: mortality of insects
Procedure: The test compounds are made to a formulation according to a similar method to that described in the Formulation Example 5, and thereto is added water containing 0.03 v/v % of Shindain (registered trademark) to prepare a diluted solution containing a prescribed concentration of the test compound.
(§2) Cabbage (Brassicae oleracea) seedling (on the developmental stage of the third to fourth true leaf) is planted in a cup, and the diluted solutions are sprayed into the seedling at a ratio of 20 mL/seedling. Thereafter, ten (10) cotton worm (Spodoptera litura) at the third instar larval stage are released. After 6 days, the number of the surviving insects is counted, and the mortality of insects is calculated by the following equation.

[5] = tested on: cotton worm (Spodoptera litura); assay: Test method 2: foliar spray on cabbage seedling, cotton worm larvae; type: in vivo; conditions: 144 h, read-out: mortality of insects
Procedure: as §1, §2

[6] = tested on: southern root-knot nematode (Meloidogyne incognita); assay: Test method 7: soil mixing and irrigation, tomato seedlings in nematode-polluted soil, root-knot index by Zeck; type: in vivo; conditions: 1,000 ppm
Procedure: Test compounds 60 mg are dissolved in acetone 600 μL containing Tween (Registered trade mark) by 5%, and thereto is added water to prepare a diluted solution containing a prescribed concentration of the test compound.
The diluted solution 20 mL are soil which is polluted with southern root-knot nematode (Meloidogyne incognita) 400 mL are mixed, and a root of healthy tomato seedlings (on the developmental stage of third to fourth true leaf) is transplanted in the soil. After the transplanting, the diluted solution 40 mL is irrigated onto soli of tomato seedlings. After 10 days, the roots are pull out from the soil, washed and the damage degree of the root (root-knot degree) is examined according to a root-knot index by Zeck (Zeck, W. M. (1971): Pflanzenschutz-Nachrichten. Bayer AG, 24, 141-144).
• 0: No root-knots is recognized. • 1: By careful observation, several small root-knots can be recognized. • 2: Several small root-knots can be easily confirmed similarly to 1. • 3: Many small root-knots are found, and some of which are fused. A function of the root is not almost lost. • 4: Many small root-knots are found, and some large ones are found. […]

[7] = tested on: silverleaf whiteflies (Bemisia tabaci); assay: Test method 6: foliar spray on tomato seedling with silverleaf whitefly larvae; conditions: in Solanum lycopersicum, 168 h, read-out: mortality of insects
[8] = tested on: brown planthoppers (Nilaparvata lugens); assay: Test method 4: foliar spray on rice seedling, brown planthopper larvae; type: in vivo; conditions: 144 h, read-out: mortality of insects
Procedure: as §1
Rice (Oryza sativa) seedling (on the developmental stage of the second true leaf) is planted in a cup, and the diluted solutions are sprayed into the seedling at a ratio of 10 mL/seedling. Thereafter, twenty (20) of 3rd instar larvae of brown planthoppers (Nilaparvata lugens) are released onto the rice leaves. After 6 days, the number of the surviving insects is examined and the mortality of insects is calculated by the following equation.

CC1=CC(=O)[C@H]2CC(=O)[C@H]3[C@](C)([C@@H]2C1)[C@H](Cl)[C@@]12OC(=O)C[C@]3(C)[C@]1(C)CC[C@]13C[C@@H](C)C[C@H](CN12)O3 [AA-1]
mortality at 10 mg/m2 [1]: ≥ 80%
mortality at 200 ppm [2]: ≥ 90%
mortality at 200 ppm [3]: ≥ 90%
mortality at 200 ppm [4]: ≥ 80%
mortality at 200 ppm [5]: ≥ 80%
root-knot index ([6]; 20 mL mixed with 400 mL soil plus 40 mL irrigation, tomato seedlings, after 10 days, untreated group index 4): 1 (By careful observation, several small root-knots can be recognized.)
formation of root-knot ([6]; versus untreated group): reduced a formation of root-knot
mortality at 200 ppm [7]: ≥ 90%
mortality at 200 ppm [8]: ≥ 90%
